Measured values published in US20120196057A1 (priority 2008, published 2012).
“Also recorded” adds a separate entry of the source.

Tests used:
[1] = Clinical trial: plasma 25-OH D after single oral bolus of 25-OH D3, Vitamin D3 or both; assay type: in vivo, human; conditions: single oral bolus 140 μg (combo 140 μg + 140 μg)
Text: Each group included five subjects. They are followed for four months in Zurich, Switzerland during the winter.
Equal quantities of both substances were investigated. […] As the maximum pre-existing baseline concentration of 25-OH D will be 50 nmol/L, it is not anticipated that subjects will approach the range where disturbance in Ca^2+ homeostasis has been observed.
Each dosage is consumed orally at breakfast. The duration of the study is four months for the “Daily” and “Weekly” groups. Subjects enrolled in the “Bolus” group consume orally a single dosage at the second study visit and are further followed-up for four months.

[2] = tested on: gastrocnemius muscle; assay: Gene chip analysis in hindlimb unloading (tail suspension) skeletal muscle atrophy model; assay type: in vivo, BalbC mice; conditions: for Differentially expressed probe sets for genes between HU and HU + treatment group: 50 μg/kg/bw (combo 50+50) by gavage twice, 7 days hindlimb unloading, Affymetrix Mouse 430-2; for Expression of Myosin, light chain kinase (Mylk) / Expression of Tropomyosin 1 (Tpm1) / Expression of Titin (Tnt) / Expression of Myomesin 1 (Myom 1) / Number of differentially expressed probe sets also differentially expressed in 25-OH D3+Vitamin D3 group / Share of differentially expressed probe sets also differentially expressed in 25-OH D3+Vitamin D3 group: gastrocnemius muscle; for Expression of Myosin, light chain kinase (Mylk): HU control 749; for Expression of Tropomyosin 1 (Tpm1): HU control 1179; for Expression of Titin (Tnt): HU control 11353; for Expression of Myomesin 1 (Myom 1): HU control 84697; for Differentially expressed muscle genes compared to HU: selected skeletal muscle genes, list wrapped over table lines; for Number of differentially expressed probe sets also differentially expressed in 25-OH D3+Vitamin D3 group / Share of differentially expressed probe sets also differentially expressed in 25-OH D3+Vitamin D3 group: vs HU control
Text: Initially this model was established in rats for simulating spaceflight in humans and is commonly used in other scientific fields to study the loss of skeletal muscle mass or bone. The results are considered indicative of human conditions such as sarcopenia (degenerative loss of skeletal muscle mass and strength during the process of ageing) or immobilization of skeletal muscle (e.g. after prolonged bed rest due to fractures, surgery or trauma). Methods For our study, nine month old BalbC female mice were randomized at the beginning of the study into four groups with 10 animals per group • 1. […] The animals were placed in special cages for duration of seven days; all mice were housed separately and had free access to feed and water ad libidum. All animals were treated twice by gavage at the beginning of the experiment and 3 hours before the section: 1. the control group received vehicle (gelatine) […] At the end of the study the gastrocnemius muscle was taken out and directly frozen in liquid nitrogen for further analysis. […] Total RNA was isolated using the commonly used Trizol protocol. The RNA was quantified by using spectrophotometric analysis. The integrity of total RNA samples was also assessed qualitatively on an Agilent 2100 Bioanalyzer. RNA was then prepared for the one cycle cDNA synthesis. A poly-A RNA control is used for this step to provide exogenous positive controls to monitor the entire eukaryotic target labelling process. The first cDNA synthesis is done, and after the second strand cDNA synthesis the cDNA is cleaned up of double-stranded cDNA. A biotin labelled cRNA is then synthesised, cleaned up and quantified using a spectrophotometer at 260/280 nm. It is important that cRNA target is fragmented before hybridization onto a GeneChip probe arrays to obtain optimal assay sensitivity. After fragmentation the probes are hybridized on the chips (Affymetrix Mouse 430-2 chips). The chips are washed and stained in the fluidics station of Affymetrix and scanned in the gene chip scanner. The data is then transferred from the scanner for further analysis using software from Genedata (Expressionist 5.0: […] Analyst). Data interpretation and pathway analysis was done with the online version of the GeneGo Metacore package ([…] evaluates microarray data for quality issues and flags problematic measurements. It provides a set of normalization algorithms and validated condensing methods to automatically pre-process and summarize raw microarray data for subsequent statistical analysis.

[3] = ingestion of 250 μg/day as a dietary supplement; cited from earlier work

| Molecule | Time period with increase in plasma 25-OH D levels by at least 30 nmol/L [1] | Differentially expressed probe sets for genes between HU and HU + treatment group [2] | Expression of Myosin, light chain kinase (Mylk) [2] | Expression of Tropomyosin 1 (Tpm1) [2] | Expression of Titin (Tnt) [2] | Expression of Myomesin 1 (Myom 1) [2] | Differentially expressed muscle genes compared to HU [2] | Number of differentially expressed probe sets also differentially expressed in 25-OH D3+Vitamin D3 group [2] | Share of differentially expressed probe sets also differentially expressed in 25-OH D3+Vitamin D3 group [2] [%] | Blood concentration of 25-hydroxyvitamin D resulting from ingestion [3] |
| --- | --- | --- | --- | --- | --- | --- | --- | --- | --- | --- |
| C=C1CC[C@H](O)C/C1=C/C=C1\CCC[C@]2(C)[C@@H]([C@H](C)CCCC(C)(C)O)CC[C@@H]12 [25-OH D3, 25-hydroxyvitamin D3] | 4 to 49 h | 1263 | 994 | 2110 | 13786 | 105393 | alkali, smooth muscle and non-muscle; myosin, light; also recorded: polypeptide kinase; myotubularin related protein 2;; also recorded: myotubularin related protein 4; myotubularin related; also recorded: protein 6; tropomyosin 2, beta; X-linked myotubular; also recorded: myopathy gene 1; also recorded: Desmin; dystonin; myocyte enhancer factor 2A;; also recorded: myoneurin; myosin VIIb; myosin, light polypeptide 6, | 769 | ~61 | – |
| C=C1CC[C@H](O)C/C1=C/C=C1\CCC[C@]2(C)[C@@H]([C@H](C)CCCC(C)C)CC[C@@H]12 [Vitamin D3, cholecalciferol] | – | 385 | 786 | 2199 | 11354 | 99099 | Desmin; myoneurin; tropomyosin 1, alpha; tropomyosin 2,; also recorded: beta; X-linked myotubular myopathy gene 1 | 177 | ~46 | – |
| Vitamin D | no increase of that magnitude | – | – | – | – | – | – | – | – | about 200 nmol/L |
